Converted amounts (≈) assume the structure as drawn. Read-outs that look alike come from different tables or passages of the source.
Experiments:
MRSA USA300 [1] = test: MIC by broth microdilution (CLSI) against MRSA USA300; assay type: cell-based, Staphylococcus aureus; conditions: for MIC: Staphylococcus aureus, read-out: MRSA USA300 MIC
Excerpt: (§1) Table 1 summarizes the antibacterial activity of certain compounds, according to the present invention, as calculated by minimum inhibitory concentration (MIC) values against one multidrug resistant gram-positive strain (MRSA USA300), and one multidrug resistant gram-negative (Acinetobacter baumannii AB5075). The later bacterial strain is listed at the top of the WHO's critical priority list for antibiotic development. Preferred compounds, according to the present invention are example compounds of formulas 72, 74, and 75, and, in particular, example compound of formula 75.
(§2) The minimum inhibitory concentration (MIC) of tested compounds and control antibiotics was determined using the broth microdilution method according to the guidelines outlined by the Clinical and Laboratory Standards Institute (CLSI, Methods for Dilution Antimicrobial Susceptibility Tests for Bacteria That Grow Aerobically; Approved Standard. January 2012; Vol. Ninth Edition M07-A9. 32 No. 2.). Bacterial strains were grown aerobically overnight on tryptone soy agar plates at 37° C. Afterwards, a bacterial solution equivalent to 0.5 McFarland standard was prepared and diluted in cation-adjusted Mueller-Hinton broth (CAMHB) to achieve a bacterial concentration of about 5×10^5 CFU/mL and seeded in 96-well plates. Compounds and control drugs were added in the first row of the 96-well plates and serially diluted along the plates. Plates were then, incubated aerobically at 37° C. for 18-20 hours.

A. baumannii AB5075 = test: MIC by broth microdilution (CLSI) against A. baumannii AB5075; assay type: cell-based, Acinetobacter baumannii; conditions: for MIC: Acinetobacter baumannii
Excerpt: as §1, §2

MRSA strain USA300 = test: Murine skin infection model, subcutaneous MRSA infection, topical treatment; assay type: in vivo; conditions: mice, twice daily for four days; for bacterial counts from skin lesions compared with PJ group / appearance of skin lesions (visual comparison): 2% topical; for bacterial counts from skin lesions compared with PJ group: *p≤0.05; for appearance of skin lesions (visual comparison): vs petroleum jelly vehicle
Method: The effectiveness of certain compounds, according to the present invention, was assessed using a murine skin infection model, conducted as previously described (Tseng, C. W. et. al. Subcutaneous infection of methicillin resistant Staphylococcus aureus (MRSA), J. Vis. Exp., (2011) 2528). The effect of example compound of formula 75 was assessed against skin infection caused by methicillin-resistant Staphylococcus aureus (MRSA), the main causative agent of diabetic foot ulcer. Within 72 hours post-subcutaneous infection with MRSA strain USA300, the backs of the mice started showing evident lesions. At this point, treatment regimen started for the three groups of mice, for four days, twice daily, with petroleum jelly (PJ) or petroleum jelly with 2% example compound of formula 75 or 2% fusidic acid ointment (FA). […] The mice with plain vehicle (PJ) applied throughout the experiment had ulcerated lesions and visible skin damage with demarcated red prominent edges, as shown in FIG. 2A.

MRSA USA300 [2] = test: Multi-step resistance experiment, 14 consecutive passages; assay type: cell-based, Staphylococcus aureus
Method: A multi-step resistance experiment was conducted, with example compound of formula 75. Initially, the MICs of heptyl compound and rifampicin, as the control antibiotic, were determined against MRSA USA300 using the broth microdilution method. Then, the strain was subcultured for fourteen consecutive passages over two weeks, with increasing concentrations of the tested agents, to detect the shift in the MIC, if any.
Multi-step resistance testing was conducted as reported earlier (PLOS One, 12 (2017) e0182821). A broth microdilution assay was used to determine the MIC for the MRSA strain USA300 after being exposed for 14 consecutive passages to either the example compound of formula 75, or rifampicin, as a control antibiotic. Briefly, different concentrations of TBT4 and rifampicin were prepared in 10 mL Mueller-Hinton (MH) broth (0.125 to 32 μg/ml and 0.003 to 1024 μg/mL, respectively) and they were inoculated with 10 μL of an overnight culture of S. aureus strain USA300 and then incubated at 37° C., with shaking at 180 rpm, for 24 h. […] Resistance was classified as a greater than four-fold increase in the initial MIC (Antimicrob. Agents Chemother., 55 (2011) 1177-1181).

[3] = broth microdilution, CAMHB, 37° C., 18-20 hours
[4] = AB5075, broth microdilution, CAMHB, 37° C., 18-20 hours, read-out: A. baumannii AB5075 MIC
[5] = comparison of MIC values of Table 1
[6] = end of the experiment (fourteen passages)

Row | Compound | MIC (MRSA USA300 [1]; [3]) | MIC (A. baumannii AB5075; [4]) | further results
1 | CCCCSc1ccc(/C(C)=N/NC(=N)N)cc1 [Example compound of formula 69] | 8 µg/mL | 16 µg/mL | 
2 | CCCCCCSc1ccc(/C(C)=N/NC(=N)N)cc1 [Example compound of formula 74, 2-(1-(4-(Hexylthio)phenyl)ethylidene)hydrazine-1-carboximidamide] | 0.5 µg/mL | 4 µg/mL | potency against S. aureus USA300 relative to example compound of formula 75 (MRSA USA300 [1]; [5]): maintained the same potency; potency against tested gram-negative pathogen (A. baumannii AB5075) relative to example compound of formula 75 (A. baumannii AB5075; [5]): four times less potent
3 | C/C(=N\NC(=N)N)c1ccc(SCCc2ccccc2)cc1 [Example compound of formula 84] | 2 µg/mL | 8 µg/mL | 
4 | C/C(=N\NC(=N)N)c1ccc(SCCC(C)C)cc1 [Example compound of formula 77] | 4 µg/mL | 8 µg/mL | 
5 | CCCCCCCSc1ccc(/C(C)=N/NC(=N)N)cc1 [Example compound of formula 75, 2-(1-(4-(Heptylthio)phenyl)ethylidene)hydrazine-1-carboximidamide] | 0.5 µg/mL | 1 µg/mL | decrease in bacterial loads recovered from skin lesions (MRSA strain USA300; 2% in petroleum jelly, topical): ~1 log cycle; reduction in bacterial loads recovered from skin lesions (MRSA strain USA300; 2% in petroleum jelly, topical): 90%; bacterial counts from skin lesions compared with PJ group (MRSA strain USA300): significantly lower than the counts obtained from the PJ group; appearance of skin lesions (visual comparison) (MRSA strain USA300): showed signs of lesion healing and better recovery; increase in MIC against MRSA USA300 (MRSA USA300 [2]; eighth passage): 2 fold; increase in MIC against MRSA USA300 (MRSA USA300 [2]; [6]): remained stable till the end of the experiment; increase in MIC against MRSA USA300 (MRSA USA300 [2]; on the fifth passage): one-fold
6 | C/C(=N\NC(=N)N)c1ccc(SCc2ccccc2)cc1 [Example compound of formula 83] | 4 µg/mL | 16 µg/mL | 
7 | CCC(CC)CSc1ccc(/C(C)=N/NC(=N)N)cc1 [Example compound of formula 78] |  |  | MRSA USA300 MIC (MRSA USA300 [1]; [3]): No inhibition; A. baumannii AB5075 MIC (A. baumannii AB5075; [3]): No inhibition
8 | CCCSc1ccc(/C(C)=N/NC(=N)N)cc1 [Example compound of formula 68] |  |  | MRSA USA300 MIC (MRSA USA300 [1]; [3]): No inhibition; A. baumannii AB5075 MIC (A. baumannii AB5075; [3]): No inhibition
9 | C/C(=N\NC(=N)N)c1ccc(SCC2CCCCC2)cc1 [Example compound of formula 82] |  |  | MRSA USA300 MIC (MRSA USA300 [1]; [3]): No inhibition; A. baumannii AB5075 MIC (A. baumannii AB5075; [3]): No inhibition
10 | CCCCCCCCSc1ccc(/C(C)=N/NC(=N)N)cc1 [Example compound of formula 72] | 1 µg/mL | 8 µg/mL | 
11 | CCCCCCCCCSc1ccc(/C(C)=N/NC(=N)N)cc1 [Example compound of formula 73] | 2 µg/mL | 16 µg/mL | 
12 | C/C(=N\NC(=N)N)c1ccc(SC2CCCCC2)cc1 [Example compound of formula 80] | 4 µg/mL | 8 µg/mL | 
13 | CC(=O)O[C@H]1C[C@@]2(C)[C@@H](C[C@@H](O)[C@H]3[C@@]4(C)CC[C@@H](O)[C@@H](C)[C@@H]4CC[C@@]32C)/C1=C(\CCC=C(C)C)C(=O)O [fusidic acid, reference compound] |  |  | bacterial counts from skin lesions compared with PJ group (MRSA strain USA300): significantly lower than the counts obtained from the PJ group; appearance of skin lesions (visual comparison) (MRSA strain USA300): showed signs of lesion healing and better recovery
14 | CCCCCSc1ccc(/C(C)=N/NC(=N)N)cc1 [Example compound of formula 71] | 8 µg/mL | 16 µg/mL | 
15 | Gentamycin [reference compound] |  |  | A. baumannii AB5075 MIC (A. baumannii AB5075; [3]): 1 µg/mL
16 | C=CCCSc1ccc(/C(C)=N/NC(=N)N)cc1 [Example compound of formula 70] | 32 µg/mL | 32 µg/mL | 
17 | C/C(=N\NC(=N)N)c1ccc(SC2CCCC2)cc1 [Example compound of formula 79] | 8 µg/mL | 16 µg/mL | 
18 | C/C(=N\NC(=N)N)c1ccc(SCC(C)C)cc1 [Example compound of formula 76] | 8 µg/mL | 16 µg/mL | 
19 | CO[C@H]1/C=C/O[C@@]2(C)Oc3c(C)c(O)c4c(O)c(c(/C=N/N5CCN(C)CC5)c(O)c4c3C2=O)NC(=O)/C(C)=C\C=C\[C@H](C)[C@H](O)[C@@H](C)[C@@H](O)[C@@H](C)[C@H](OC(C)=O)[C@@H]1C [rifampicin, reference compound] |  |  | increase in MIC against MRSA USA300 (MRSA USA300 [2]; eighth passage): 7 fold; increase in MIC against MRSA USA300 (MRSA USA300 [2]; [6]): 13 fold
20 | CN[C@H](CC(C)C)C(=O)N[C@H]1C(=O)N[C@@H](CC(N)=O)C(=O)N[C@H]2C(=O)N[C@H]3C(=O)N[C@H](C(=O)N[C@H](C(=O)O)c4cc(O)cc(O)c4-c4cc3ccc4O)[C@H](O)c3ccc(c(Cl)c3)Oc3cc2cc(c3O[C@@H]2O[C@H](CO)[C@@H](O)[C@H](O)[C@H]2O[C@H]2C[C@](C)(N)[C@H](O)[C@H](C)O2)Oc2ccc(cc2Cl)[C@H]1O [Vancomycin, reference compound] |  |  | MIC (MRSA USA300 [1]): 1 µg/mL (≈ 0.69 µM); MIC (A. baumannii AB5075; AB5075, read-out: A. baumannii AB5075 MIC): > 128 µg/mL
21 | C/C(=N\NC(=N)N)c1ccc(SCC2CCC2)cc1 [Example compound of formula 81] | 8 µg/mL | 16 µg/mL | 
